In US6251853A, “PTX sensitive G proteins, the production and use thereof” (priority 1996, dated 2001):

Columns and labels:
[1] = tested on: PTX-sensitive G proteins; experiment: mastoparan 7-stimulated [35S]GTPγS binding to isolated cell membranes from normotensives and hypertensives; format: biochemical, human
Experimental: (§1) A detailed characterization was carried out of the activation of G proteins from cells of normotensive subjects and hypertensive patients. For this purpose, the stimulated incorporation of radiolabeled [^35 S] GTPγS was quantified by the method described by Wieland et al. (Wieland, T., Liedel, K., Xaldenberg-Stasch, S., Meyer zu Heringdorf, D., Schmidt, M., and Jakobs, K. E. Analysis of receptor-G protein interactions in permeabilized cells. Naunyn-Schmiedeberg's Arch.Pharmacol. 351:329-336,1995). G Proteins were activated initially by stimulating cells which had been permeabilized with digitonin using the peptide mastoparan 7. This peptide simulates the configuration of an activated G protein-coupled receptor so that it can be used to induce direct G protein activation independent of receptors (Ross, E. M. and Higashijima, T. Regulation of G protein activation by mastoparan and other cationic peptides. Methods Enzymol. 237:27-38, 1994). The binding of GTPγS induced by MAS-7 is completely PTX-sensitive so that it can be used to quantify the activation of heterotrimeric G proteins of the Gi type. […] MAS-7 induces strong [^35 S] GTPγS binding on HT cells with an EC50 of about 5 μm (FIG. 2). Maximum binding is reached at about 25 to 50 μm MAS-7. In contrast to this, the concentration required for the same [^35 S] GTPγS binding to NT cells are [sic] 10 times higher (FIG. 2).
GTPγS to isolated cell membranes from normotensives and hypertensives. It is evident that the maximum stimulated binding of [^35 S] GTPγS to membranes from hypertensives occurs at lower concentrations of GDP (about 0.2 μmol/l), where a concentration of 1 μmol/l GDP is required for the same effect in normotensives.
In a similar way, the maximum binding, stimulated by mastoparan 7, of [^35 S] GTPγS to membrane preparations from hypertensive cells a low concentration of free Mg^2+ (about 0.01 mmol/l), while a free Mg^2+ concentration of 0.1 mmol/l is necessary for the same maximum binding of [^35 S] GTPγS to membranes from normotensive cells (FIG. 5).

[2] = tested on: PTX-sensitive G proteins (heterotrimeric G proteins of the Gi type); experiment: mastoparan 7-stimulated [35S]GTPγS binding to digitonin-permeabilized cells from normotensives and hypertensives; format: cell-based, human
Experimental: as §1
GTPγS to cell lines from normotensives (NT) and hypertensives (HT).
The binding of [^35 S] GTPγS to hypertensive cells is distinctly speeded up (rate constants 0.005 s^-1 in the normotensive versus 0.01 s^-1 in the hypertensive state).

[Mg+2] [Mg^2+]
free Mg2+ concentration for maximum mastoparan 7-stimulated [35S]GTPγS binding ([1]; membrane preparations from hypertensive cells): about 0.01 mmol/l | free Mg2+ concentration for maximum mastoparan 7-stimulated [35S]GTPγS binding ([1]; membranes from normotensive cells): 0.1 mmol/L

Nc1nc2c(ncn2[C@@H]2O[C@H](COP(=O)(O)OP(=O)(O)O)[C@@H](O)[C@H]2O)c(=O)[nH]1 [GDP]
GDP concentration at which maximum mastoparan 7-stimulated [35S]GTPγS binding occurs ([1]; membranes from hypertensives): about 0.2 μmol/l | GDP concentration required for maximum mastoparan 7-stimulated [35S]GTPγS binding ([1]; membranes from normotensives): 1 µmol/L

mastoparan 7 [MAS-7]
EC50 ([2]; HT (hypertensive) cells, digitonin-permeabilized, read-out: EC50 of induced [35S]GTPγS binding): ~5 µM | concentration required for the same [35S]GTPγS binding to NT cells, relative to HT cells ([2]; NT (normotensive) versus HT cells): 10 times higher | rate constant of stimulated [35S]GTPγS binding ([2]; hypertensive state): 0.01 s⁻¹ | rate constant of stimulated [35S]GTPγS binding ([2]; normotensive state): 0.005 s⁻¹
